Measurements as given in US20050123553A1, “Amyloid beta-peptide and methods of use” (priority 2003, published 2005).
Ends that are not written are not given here.

What was measured:
Aβ16-30-specific T cells = experiment: Proliferation of Aβ16-30-specific T cells with alanine/glycine-substituted peptides; format: cell-based, human; details: for T-cell proliferation, average cpm: 72 hr
Description: Because the T-cell epitopes were most frequently localized to Aβ16-30, we further mapped this epitope for each of its constituent amino acids by using alanine-substituted peptides in the T-cell proliferation assay (the naturally occurring alanines at positions 21 and 30 were changed to glycines). […] Substitution of lysine-16, alanine-21, serine-26 or aspargine-27 increased T-cell proliferation by more than 2-fold (Table 4).
In this experiment, T cells specific to Aβ16-30 were stimulated in the presence of alanine/glycine substituted peptides and autologous PBMCs. T-cell proliferation was measured by [^3H]-thymidine incorporation 72 hr after stimulation. Numbers represent average cpm of each antigen concentration tested (average cpm in the absence of antigen was 911).
(§1) T-cell lines were then supplemented with 10 μg/ml IL-2 after 48 hours and every 2 days thereafter until they were completely resting. T-cell proliferation was measured 72 hours after stimulation following a 12 hr incubation with [^3H]-thymidine. Supernatants were collected 48 hr after T-cell stimulation, and antigen-induced cytokine production was measured by sandwich ELISA. Recommended pairs of antibodies (coating and detecting) for IL-10 (R&D, Minneapolis, Minn.), INF-γ. Endogen, Woburn, Mass.), IL-13 (PharMingen, (San Diego, Calif.), and TGF-β (Promega, Madison, Wis.) were used according to the manufacturer's instructions. Surface and intracellular staining was performed on Aβ-reactive T-cells after stimulation. All antibodies were purchased from BD Biosciences (San Diego, Calif.) and staining was performed according to the manufacturer's instructions.

[1] = tested on: Aβ1-42-reactive T-cell lines; experiment: Epitope mapping / proliferation of Aβ1-42-reactive T-cell lines; format: cell-based, human; details: for Distribution of Aβ T-cell epitopes: Number of T-cell lines / Distribution of Aβ T-cell epitopes: percent: lines from 24 subjects, fine mapping with 15 amino acid overlapping peptides
Description: Epitope specificity of these 3 T-cell lines using 5 overlapping peptides within Aβ15-42 was further investigated.
as §1

Aβ-reactive T-cell lines = experiment: Cytokine secretion of Aβ-reactive T-cell lines (sandwich ELISA); format: cell-based, human; details: 48 hr after stimulation, T-cell lines 1, 2, 3
Description: as §1

[2] = tested on: popliteal draining lymph nodes (PLN) T cells; experiment: Lymph node T-cell proliferation after immunization of mice with Aβ in CFA; format: cell-based, mouse; details: for T-cell proliferation across the peptide series Aβ7-21 to Aβ10-24: SJL mice immunized with rodent Aβ1-42; for T-cell proliferation with overlapping peptides: SJL-derived lymphocyte cultures, immunized with human Aβ1-42
APP/IFN-g Tg mice = details: mouse, in vivo
Description: To determine whether carrying the IA^s allele is sufficient to induce T-cell activation and migration to the CNS of APP-tg mice, B6SJLF1 APP-tg mice line J20, see Methods) were immunized with Aβ10-24 in CFA followed by intravenous injection of PT at the time of immunization and 48 hr later.
APP/IFN-γ tg mice that were immunized with Aβb 10-24 were analyzed by immunohistochemistry 20 and 30 days after immunization for immune infiltrates associated with Aβ plaques.
Immunization and measurement of immune responses: Mice were immunized by footpad injection if sacrificed on day 12, for longer periods mice were injected in the flanks. Each mouse received 100 ml of antigen (1 mg/ml), emulsified in an equal volume of complete Freund's adjuvant (CFA). Mice were also injected intravenously with 150 ng pertussis toxin at the time of immunization and 48 hours later.
Immunohistochemistry and imaging: Cryosections (6 μm) from brains of APP-Tg+ mice were placed onto glass slides and fixed with ice-cold methanol for 2 min followed by 2% PFA at RT for 4 min. Sections were washed once with distilled water for 5 min and twice with PBS containing 0.05% Tween-20. Sections were then incubated for 1 hour at RT with blocking buffer (PBS containing 3% normal goat serum and 2% bovine serum albumin).

## Ala 21 Gly: Aβ16-30 peptide with alanine 21 changed to glycine (KLVFFGEDVGSNKGA; Amyloid-beta protein 42; UniProt P05067 687-701, looked up, variant A21G)
Aβ16-30-specific T cells; Peptide 0.1 μg/ml
  T-cell proliferation, average cpm: 12901 cpm
Aβ16-30-specific T cells; Peptide 1 μg/ml
  T-cell proliferation, average cpm: 29634 cpm
Aβ16-30-specific T cells; Peptide 10 μg/ml
  T-cell proliferation, average cpm: 36448 cpm

## Ala 30 Gly: Aβ16-30 peptide with alanine 30 changed to glycine (KLVFFAEDVGSNKGG; Amyloid-beta protein 42; UniProt P05067 687-701, looked up, variant A30G)
Aβ16-30-specific T cells; Peptide 0.1 μg/ml
  T-cell proliferation, average cpm: 2123 cpm
Aβ16-30-specific T cells; Peptide 1 μg/ml
  T-cell proliferation, average cpm: 12027 cpm
Aβ16-30-specific T cells; Peptide 10 μg/ml
  T-cell proliferation, average cpm: 15395 cpm

## Asn 27 Ala: Aβ16-30 peptide with asparagine-27 substituted by alanine (KLVFFAEDVGSAKGA; Amyloid-beta protein 42; UniProt P05067 687-701, looked up, variant N27A)
Aβ16-30-specific T cells; Peptide 0.1 μg/ml
  T-cell proliferation, average cpm: 23636 cpm
Aβ16-30-specific T cells; Peptide 1 μg/ml
  T-cell proliferation, average cpm: 36588 cpm
Aβ16-30-specific T cells; Peptide 10 μg/ml
  T-cell proliferation, average cpm: 34983 cpm

## Asp 23 Ala: Aβ16-30 peptide with aspartic acid-23 substituted by alanine (KLVFFAEAVGSNKGA; Amyloid-beta protein 42; UniProt P05067 687-701, looked up, variant D23A)
Aβ16-30-specific T cells; Peptide 0.1 μg/ml
  T-cell proliferation, average cpm: 1145 cpm
Aβ16-30-specific T cells; Peptide 1 μg/ml
  T-cell proliferation, average cpm: 1685 cpm
Aβ16-30-specific T cells; Peptide 10 μg/ml
  T-cell proliferation, average cpm: 612 cpm
Aβ16-30-specific T cells; at all 3 concentrations used
  effect of substitution on T-cell proliferation: blocked or significantly decreased

## Aβ1-28: overlapping N-terminal fragment of Aβ1-42, residues 1-28
[1]
  Distribution of Aβ T-cell epitopes: Number of T-cell lines: 2
  Distribution of Aβ T-cell epitopes: percent: 8%
Aβ-reactive T-cell lines
  IFN-γ secretion: not IFN-γ
  IL-13 secretion: high levels

## Aβ7-21: nested Aβ peptide, residues 7-21 (DSGYEVHHQKLVFFA; Amyloid-beta protein 42; UniProt P05067 678-692, looked up, fragment)
[1]
  Distribution of Aβ T-cell epitopes: Number of T-cell lines: 1
  Distribution of Aβ T-cell epitopes: percent: 4%
[2]; NOD mice immunized with Aβ1-42
  T-cell proliferation: slight T-cell proliferation
[2]
  T-cell proliferation across the peptide series Aβ7-21 to Aβ10-24: gradual increase
  T-cell proliferation with overlapping peptides: induced T-cell proliferation

## Aβ8-22: Aβ peptide, residues 8-22 (SGYEVHHQKLVFFAE; Amyloid-beta protein 42; UniProt P05067 679-693, looked up, fragment)
[2]
  T-cell proliferation across the peptide series Aβ7-21 to Aβ10-24: gradual increase

## Aβ13-27: nested Aβ peptide, residues 13-27 (HHQKLVFFAEDVGSN; Amyloid-beta protein 42; UniProt P05067 684-698, looked up, fragment)
[2]
  T-cell proliferation with overlapping peptides: induced T-cell proliferation

## Aβ19-33: nested Aβ peptide, residues 19-33 (FFAEDVGSNKGAIIG)
[1]; T-cell line DRB1 1501/1101, 5 overlapping peptides within Aβ15-42
  location of T-cell epitopes: mainly located

## Aβ28-42: nested Aβ peptide, residues 28-42 (KGAIIGLMVGGVVIA; Amyloid-beta protein 42; UniProt P05067 699-713, looked up, fragment)
[1]
  Distribution of Aβ T-cell epitopes: Number of T-cell lines: 5
  Distribution of Aβ T-cell epitopes: percent: 20%

## Glu 22 Ala: Aβ16-30 peptide with glutamic acid-22 substituted by alanine (KLVFFAADVGSNKGA; Amyloid-beta protein 42; UniProt P05067 687-701, looked up, variant E22A)
Aβ16-30-specific T cells; Peptide 0.1 μg/ml
  T-cell proliferation, average cpm: 1145 cpm
Aβ16-30-specific T cells; Peptide 1 μg/ml
  T-cell proliferation, average cpm: 840 cpm
Aβ16-30-specific T cells; Peptide 10 μg/ml
  T-cell proliferation, average cpm: 517 cpm
Aβ16-30-specific T cells; at all 3 concentrations used
  effect of substitution on T-cell proliferation: blocked or significantly decreased

## Gly 25 Ala: Aβ16-30 peptide with Gly 25 substituted by alanine (KLVFFAEDVASNKGA; Amyloid-beta protein 42; UniProt P05067 687-701, looked up, variant G25A)
Aβ16-30-specific T cells; Peptide 0.1 μg/ml
  T-cell proliferation, average cpm: 2426 cpm
Aβ16-30-specific T cells; Peptide 1 μg/ml
  T-cell proliferation, average cpm: 13763 cpm
Aβ16-30-specific T cells; Peptide 10 μg/ml
  T-cell proliferation, average cpm: 24979 cpm

## Gly 29 Ala: Aβ16-30 peptide with glycine-29 substituted by alanine (KLVFFAEDVGSNKAA; Amyloid-beta protein 42; UniProt P05067 687-701, looked up, variant G29A)
Aβ16-30-specific T cells; Peptide 0.1 μg/ml
  T-cell proliferation, average cpm: 622 cpm
Aβ16-30-specific T cells; Peptide 1 μg/ml
  T-cell proliferation, average cpm: 3014 cpm
Aβ16-30-specific T cells; Peptide 10 μg/ml
  T-cell proliferation, average cpm: 14513 cpm
Aβ16-30-specific T cells; only at 0.1 or 1 μg/ml
  effect of substitution on T-cell proliferation: inhibitory effects

## Leu 17 Ala: Aβ16-30 peptide with Leu 17 substituted by alanine (KAVFFAEDVGSNKGA; Amyloid-beta protein 42; UniProt P05067 687-701, looked up, variant L17A)
Aβ16-30-specific T cells; Peptide 0.1 μg/ml
  T-cell proliferation, average cpm: 2242 cpm
Aβ16-30-specific T cells; Peptide 1 μg/ml
  T-cell proliferation, average cpm: 11805 cpm
Aβ16-30-specific T cells; Peptide 10 μg/ml
  T-cell proliferation, average cpm: 24480 cpm

## Lys 16 Ala: Aβ16-30 peptide with lysine-16 substituted by alanine (ALVFFAEDVGSNKGA; Amyloid-beta protein 42; UniProt P05067 687-701, looked up, variant K16A)
Aβ16-30-specific T cells; Peptide 0.1 μg/ml
  T-cell proliferation, average cpm: 5357 cpm
Aβ16-30-specific T cells; Peptide 1 μg/ml
  T-cell proliferation, average cpm: 22304 cpm
Aβ16-30-specific T cells; Peptide 10 μg/ml
  T-cell proliferation, average cpm: 36456 cpm

## Lys 28 Ala: Aβ16-30 peptide with Lys 28 substituted by alanine (KLVFFAEDVGSNAGA; Amyloid-beta protein 42; UniProt P05067 687-701, looked up, variant K28A)
Aβ16-30-specific T cells; Peptide 0.1 μg/ml
  T-cell proliferation, average cpm: 5050 cpm
Aβ16-30-specific T cells; Peptide 1 μg/ml
  T-cell proliferation, average cpm: 15475 cpm
Aβ16-30-specific T cells; Peptide 10 μg/ml
  T-cell proliferation, average cpm: 29156 cpm

## Phe 19 Ala: Aβ16-30 peptide with phenylalanine-19 substituted by alanine (KLVAFAEDVGSNKGA; Amyloid-beta protein 42; UniProt P05067 687-701, looked up, variant F19A)
Aβ16-30-specific T cells; Peptide 0.1 μg/ml
  T-cell proliferation, average cpm: 986 cpm
Aβ16-30-specific T cells; Peptide 1 μg/ml
  T-cell proliferation, average cpm: 4354 cpm
Aβ16-30-specific T cells; Peptide 10 μg/ml
  T-cell proliferation, average cpm: 17943 cpm
Aβ16-30-specific T cells; only at 0.1 or 1 μg/ml
  effect of substitution on T-cell proliferation: inhibitory effects

## Phe 20 Ala: Aβ16-30 peptide with phenylalanine-20 substituted by alanine (KLVFAAEDVGSNKGA; Amyloid-beta protein 42; UniProt P05067 687-701, looked up, variant F20A)
Aβ16-30-specific T cells; Peptide 0.1 μg/ml
  T-cell proliferation, average cpm: 1188 cpm
Aβ16-30-specific T cells; Peptide 1 μg/ml
  T-cell proliferation, average cpm: 2239 cpm
Aβ16-30-specific T cells; Peptide 10 μg/ml
  T-cell proliferation, average cpm: 4216 cpm
Aβ16-30-specific T cells; at all 3 concentrations used
  effect of substitution on T-cell proliferation: blocked or significantly decreased

## Ser 26 Ala: Aβ16-30 peptide with serine-26 substituted by alanine (KLVFFAEDVGANKGA; Amyloid-beta protein 42; UniProt P05067 687-701, looked up, variant S26A)
Aβ16-30-specific T cells; Peptide 0.1 μg/ml
  T-cell proliferation, average cpm: 18808 cpm
Aβ16-30-specific T cells; Peptide 1 μg/ml
  T-cell proliferation, average cpm: 36287 cpm
Aβ16-30-specific T cells; Peptide 10 μg/ml
  T-cell proliferation, average cpm: 38335 cpm

## Val 18 Ala: Aβ16-30 peptide with Val 18 substituted by alanine (KLAFFAEDVGSNKGA; Amyloid-beta protein 42; UniProt P05067 687-701, looked up, variant V18A)
Aβ16-30-specific T cells; Peptide 0.1 μg/ml
  T-cell proliferation, average cpm: 7216 cpm
Aβ16-30-specific T cells; Peptide 1 μg/ml
  T-cell proliferation, average cpm: 17427 cpm
Aβ16-30-specific T cells; Peptide 10 μg/ml
  T-cell proliferation, average cpm: 26814 cpm

## Val 24 Ala: Aβ16-30 peptide with valine-24 substituted by alanine (KLVFFAEDAGSNKGA; Amyloid-beta protein 42; UniProt P05067 687-701, looked up, variant V24A)
Aβ16-30-specific T cells; Peptide 0.1 μg/ml
  T-cell proliferation, average cpm: 944 cpm
Aβ16-30-specific T cells; Peptide 1 μg/ml
  T-cell proliferation, average cpm: 6160 cpm
Aβ16-30-specific T cells; Peptide 10 μg/ml
  T-cell proliferation, average cpm: 19869 cpm
Aβ16-30-specific T cells; only at 0.1 or 1 μg/ml
  effect of substitution on T-cell proliferation: inhibitory effects

## YEVHHQKLVFFAEDV [Aβ10-24]
APP/IFN-g Tg mice
  Immune infiltrates in the spinal cord: not observed
  meningoencephalitis: strong meningoencephalitis
